Results from the supplement of paper PMC10307832.

How the values were obtained:
Experiment in all cases: relative viability (nuclei count vs DMSO), 5 days (fraction); higher = more cells survive
XMD13-2 + Palbociclib = compound: C1CC1C(=O)NC2=NNC3=C2C=CC(=C3)C4=CC(=CC=C4)C(=O)NC5CC5 [XMD13-2] + CC(=O)c1c(C)c2cnc(Nc3ccc(N4CCNCC4)cn3)nc2n(C2CCCC2)c1=O [Palbociclib] (partner 0.5 µM)
Method in brief: (§1)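 Lung cancer cell lines, seeded in 1536-well plates, were treated the following day by pin tool with a single drug or with five library-drug doses (not always all listed) in √10 steps on top of a fixed anchor-drug dose. Cells were fixed and nuclei stained in one step after 5 days, and nuclei were counted. Relative viability is the nuclei count for treated wells divided by that for vehicle wells, reported as medians of duplicate plates.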

Dasatinib + Alpelisib = compound: Cc1nc(Nc2ncc(C(=O)Nc3c(C)cccc3Cl)s2)cc(N2CCN(CCO)CC2)n1 [Dasatinib] + Cc1nc(NC(=O)N2CCC[C@H]2C(N)=O)sc1-c1ccnc(C(C)(C)C(F)(F)F)c1 [Alpelisib] (partner 2 µM)
Method in brief: as §1

XMD13-2 + Decitabine = compound: C1CC1C(=O)NC2=NNC3=C2C=CC(=C3)C4=CC(=CC=C4)C(=O)NC5CC5 [XMD13-2] + Nc1ncn([C@H]2C[C@H](O)[C@@H](CO)O2)c(=O)n1 [Decitabine] (partner 2 µM)
Method in brief: as §1

XMD13-2 + Alpelisib = compound: C1CC1C(=O)NC2=NNC3=C2C=CC(=C3)C4=CC(=CC=C4)C(=O)NC5CC5 [XMD13-2] + Cc1nc(NC(=O)N2CCC[C@H]2C(N)=O)sc1-c1ccnc(C(C)(C)C(F)(F)F)c1 [Alpelisib] (partner 2 µM)
Method in brief: as §1

**Q.** UMC-11 was tested. Which relative viability (XMD13-2 + Palbociclib; first compound 0.05 µM) did it give?
**A.** 0.356

**Q.** What about the relative viability (XMD13-2 + Palbociclib; first compound 0.1581 µM) of the same cell line?
**A.** 0.313

**Q.** What about the relative viability (XMD13-2 + Palbociclib; first compound 0.5 µM) of the same cell line?
**A.** 0.349

**Q.** And the relative viability (XMD13-2 + Palbociclib; first compound 1.581 µM)?
**A.** 0.33

**Q.** What about the relative viability (XMD13-2 + Palbociclib; first compound 5 µM) of the same cell line?
**A.** 0.334

**Q.** What about the relative viability (Dasatinib + Alpelisib; first compound 0.005 µM) of the same cell line?
**A.** 0.988

**Q.** What about the relative viability (Dasatinib + Alpelisib; first compound 0.01581 µM) of the same cell line?
**A.** 0.768

**Q.** And the relative viability (Dasatinib + Alpelisib; first compound 0.05 µM)?
**A.** 0.752

**Q.** And the relative viability (Dasatinib + Alpelisib; first compound 0.1581 µM)?
**A.** 0.347

**Q.** And the relative viability (Dasatinib + Alpelisib; first compound 0.5 µM)?
**A.** 0.264

**Q.** What about the relative viability (XMD13-2 + Decitabine; first compound 0.05 µM) of the same cell line?
**A.** 0.62

**Q.** What about the relative viability (XMD13-2 + Decitabine; first compound 0.1581 µM) of the same cell line?
**A.** 0.585

**Q.** What about the relative viability (XMD13-2 + Decitabine; first compound 0.5 µM) of the same cell line?
**A.** 0.793

**Q.** What about the relative viability (XMD13-2 + Decitabine; first compound 1.581 µM) of the same cell line?
**A.** 0.625

**Q.** What about the relative viability (XMD13-2 + Decitabine; first compound 5 µM) of the same cell line?
**A.** 0.579

**Q.** What about the relative viability (XMD13-2 + Alpelisib; first compound 0.05 µM) of the same cell line?
**A.** 1.22

**Q.** What about the relative viability (XMD13-2 + Alpelisib; first compound 0.1581 µM) of the same cell line?
**A.** 1.07

**Q.** What about the relative viability (XMD13-2 + Alpelisib; first compound 0.5 µM) of the same cell line?
**A.** 0.944

**Q.** What about the relative viability (XMD13-2 + Alpelisib; first compound 1.581 µM) of the same cell line?
**A.** 0.924

**Q.** And the relative viability (XMD13-2 + Alpelisib; first compound 5 µM)?
**A.** 1.13
